Active and inactive are the calls of the source. No cut-off for these calls is given here.
Key:
[1] = biological target: T1, Cytochrome P450 3A4 (Homo sapiens, UniProt P08684); test: Inhibition of CYP3A4 in human liver microsomes up to 50 uM using testosterone as substrate measured after 10 mins in presence of NADPH by LC-MS/MS analysis; format: ADME
[2] = Cmax in patient with advanced solid tumor at 120 mg, po administered once daily measured on day 15; format: ADME, organism-based; parameters: dose 120 mg, route oral; settings: human, in vivo
[3] = biological target: Protein kinase C theta type (Homo sapiens) (UniProt Q04759); test: Activity at human PKCtheta at 10 uM
[4] = biological target: Motilin receptor (Homo sapiens) (UniProt O43193); test: Activity at human MTLR receptor at 10 uM
[5] = biological target: A-type voltage-gated potassium channel KCND3 (Homo sapiens, UniProt Q9UK17); test: Activity at human Kv4.3 at 10 uM
[6] = biological target: Oxytocin receptor (Homo sapiens) (UniProt P30559); test: Activity at human oxytocin receptor at 10 uM
[7] = biological target: CDK9/cyclin T1 (Homo sapiens) (UniProt O60563+P50750); test: Activity at human CDK9/cyclinT1 at 10 uM; format: protein-complex assay
[8] = biological target: Cyclin-dependent kinase 5/CDK5 activator 1 (Homo sapiens) (UniProt Q00535+Q15078); test: Activity at human CDK5/p25 at 10 uM; format: protein-complex assay
[9] = Plasma concentration in patient with advanced solid tumor at 120 mg, po administered once daily measured on day 15 after 24 hrs; format: ADME, organism-based; settings: human
[10] = biological target: P2Y purinoceptor 1 (Homo sapiens) (UniProt P47900); test: Activity at human P2Y1 receptor at 10 uM
[11] = biological target: Neuropeptide Y receptor type 2 (Homo sapiens) (UniProt P49146); test: Activity at human NPY2 receptor at 10 uM
[12] = Half life in patient with advanced solid tumor at 40 mg, po administered once daily measured on day 15; format: ADME, organism-based; settings: human, in vivo
[13] = biological target: Voltage-gated inwardly rectifying potassium channel KCNH2 (Homo sapiens, UniProt Q12809); test: Inhibition of human ERG expressed in mammalian expression system by Q-patch clamp electrophysiology method
[14] = Plasma concentration in patient with advanced solid tumor at 40 mg, po administered once daily measured on day 15 after 24 hrs; format: ADME, organism-based; settings: human
[15] = biological target: Vasopressin V2 receptor (Homo sapiens) (UniProt P30518); test: Activity at human V2 receptor at 10 uM
[16] = Lipophilicity, log D of the compound at pH 7.4; format: physicochemical; settings: buffer
[17] = biological target: T1, Cytochrome P450 3A4; test: Inhibition of CYP3A4 in human liver microsomes up to 50 uM using midazolam as substrate measured after 10 mins in presence of NADPH by LC-MS/MS analysis; format: ADME
[18] = biological target: Protein kinase C zeta type (Homo sapiens) (UniProt Q05513); test: Activity at human PKCzeta at 10 uM
[19] = Dose normalized AUClast in Beagle dog at 5 mg/kg, po administered via gavage by UPLC-MS analysis; format: ADME, organism-based, Canis lupus familiaris; settings: in vivo
[20] = biological target: Neuromedin-K receptor (Homo sapiens) (UniProt P29371); test: Activity at human NK3 receptor at 10 uM
[21] = biological target: Cytochrome P450 2D6 (Homo sapiens, UniProt P10635); test: Inhibition of CYP2D6 in human liver microsomes up to 50 uM using dextromethorphan as substrate measured after 10 mins in presence of NADPH by LC-MS/MS analysis; format: ADME
[22] = biological target: T2, UGT2B17 (Homo sapiens, UniProt O75795); test: Substrate activity at recombinant human UGT2B17 expressed in baculovirus infected insect cell membranes assessed as enzyme-mediated glucuronidation by measuring Km at 50 uM preincubated for 5 mins followed by UDPGA addition and measured after 60 mins by LC-MS/MS analysis; format: ADME
T2 sequence (O75795 whole entry): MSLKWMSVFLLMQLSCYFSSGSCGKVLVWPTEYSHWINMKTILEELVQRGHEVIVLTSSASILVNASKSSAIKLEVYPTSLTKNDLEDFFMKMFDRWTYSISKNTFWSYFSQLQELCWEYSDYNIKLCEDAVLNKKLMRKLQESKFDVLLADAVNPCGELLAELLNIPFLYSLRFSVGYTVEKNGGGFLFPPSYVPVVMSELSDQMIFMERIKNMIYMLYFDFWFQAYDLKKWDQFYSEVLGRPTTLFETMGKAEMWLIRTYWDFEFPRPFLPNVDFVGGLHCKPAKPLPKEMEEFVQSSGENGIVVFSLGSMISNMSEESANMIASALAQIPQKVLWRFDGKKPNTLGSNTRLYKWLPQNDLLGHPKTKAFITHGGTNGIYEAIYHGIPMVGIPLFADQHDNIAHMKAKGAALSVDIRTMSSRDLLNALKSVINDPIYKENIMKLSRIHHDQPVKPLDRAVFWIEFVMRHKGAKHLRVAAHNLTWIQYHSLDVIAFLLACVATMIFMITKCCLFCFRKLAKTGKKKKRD

[23] = Clearance in Sprague-Dawley rat at 1 mg/kg, iv by UPLC-MS analysis; format: ADME, organism-based; settings: in vivo
[24] = biological target: Histamine H3 receptor (Homo sapiens) (UniProt Q9Y5N1); test: Activity at human H3 receptor at 10 uM
[25] = system: Homo sapiens; test: In vivo inhibition of HIF-2alpha in po dosed patient with advanced solid tumor assessed as reduction in EPO expression administered once daily; format: organism-based
[26] = biological target: T2, UGT2B17; test: Substrate activity at UGT2B17 in human intestinal microsomes assessed as enzyme-mediated glucuronidation by measuring Km at 2 to 1000 uM preincubated for 5 mins followed by UDPGA addition and measured after 60 mins by LC-MS/MS analysis; format: ADME, Intestine
[27] = biological target: Ribosomal protein S6 kinase beta-1 (Homo sapiens) (UniProt P23443); test: Activity at human p70S6K at 10 uM
[28] = biological target: Lysophosphatidic acid receptor 1 (Homo sapiens) (UniProt Q92633); test: Activity at human LPA1 receptor at 10 uM
[29] = biological target: Somatostatin receptor type 4 (Homo sapiens) (UniProt P31391); test: Activity at human SST4 receptor at 10 uM
[30] = biological target: Rho-associated protein kinase 2 (Homo sapiens) (UniProt O75116); test: Activity at human ROCK2 at 10 uM
[31] = AUClast in patient with advanced solid tumor at 40 mg, po administered once daily measured on day 15; format: ADME, organism-based; parameters: dose 40 mg, time 0 - last, route oral; settings: human, in vivo
[32] = biological target: Mu-type opioid receptor (Homo sapiens) (UniProt P35372); test: Activity at human mu opioid receptor at 10 uM
[33] = biological target: CDK7/Cyclin H/MNAT1 (Homo sapiens) (UniProt P51946+P50613+P51948); test: Activity at human CDK7/cyclinH/MAT1 at 10 uM; format: protein-complex assay
[34] = biological target: Cyclin-dependent kinase 1/cyclin B1 (Homo sapiens) (UniProt P06493+P14635); test: Activity at human CDK1/cyclinB at 10 uM; format: protein-complex assay
[35] = Clearance in Beagle dog at 1 mg/kg, iv by UPLC-MS analysis; format: ADME, organism-based, Canis lupus familiaris; settings: in vivo
[36] = Dose normalized AUClast in monkey at 5 mg/kg, po administered via gavage by UPLC-MS analysis; format: ADME, organism-based, Macaca mulatta; settings: rhesus monkey, in vivo

T1 sequence (P08684 whole entry): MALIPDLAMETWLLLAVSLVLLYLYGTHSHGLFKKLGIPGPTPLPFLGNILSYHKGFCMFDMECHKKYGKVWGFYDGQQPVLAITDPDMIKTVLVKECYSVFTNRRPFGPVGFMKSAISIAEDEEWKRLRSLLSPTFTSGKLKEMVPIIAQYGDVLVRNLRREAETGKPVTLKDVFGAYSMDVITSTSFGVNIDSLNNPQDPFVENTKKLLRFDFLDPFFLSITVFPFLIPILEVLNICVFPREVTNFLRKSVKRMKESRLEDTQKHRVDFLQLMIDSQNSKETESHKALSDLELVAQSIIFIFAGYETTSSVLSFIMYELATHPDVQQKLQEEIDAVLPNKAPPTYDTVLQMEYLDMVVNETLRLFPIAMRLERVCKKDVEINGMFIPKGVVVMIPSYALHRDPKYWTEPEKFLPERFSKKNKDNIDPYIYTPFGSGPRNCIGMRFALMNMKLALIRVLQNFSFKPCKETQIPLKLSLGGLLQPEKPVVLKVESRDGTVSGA
Sequence of Neuropeptide Y receptor type 2 (Homo sapiens) (P49146 whole entry): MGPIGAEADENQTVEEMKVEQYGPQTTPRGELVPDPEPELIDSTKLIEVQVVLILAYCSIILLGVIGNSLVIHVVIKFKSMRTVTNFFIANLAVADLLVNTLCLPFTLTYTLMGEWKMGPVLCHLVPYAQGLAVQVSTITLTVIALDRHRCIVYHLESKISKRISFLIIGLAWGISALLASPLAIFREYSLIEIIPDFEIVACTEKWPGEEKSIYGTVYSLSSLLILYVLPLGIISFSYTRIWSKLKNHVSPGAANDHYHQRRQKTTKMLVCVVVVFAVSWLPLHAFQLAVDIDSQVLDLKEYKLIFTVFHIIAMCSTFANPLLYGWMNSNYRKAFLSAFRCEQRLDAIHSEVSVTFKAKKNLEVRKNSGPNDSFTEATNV
Sequence of A-type voltage-gated potassium channel KCND3 (Q9UK17 whole entry): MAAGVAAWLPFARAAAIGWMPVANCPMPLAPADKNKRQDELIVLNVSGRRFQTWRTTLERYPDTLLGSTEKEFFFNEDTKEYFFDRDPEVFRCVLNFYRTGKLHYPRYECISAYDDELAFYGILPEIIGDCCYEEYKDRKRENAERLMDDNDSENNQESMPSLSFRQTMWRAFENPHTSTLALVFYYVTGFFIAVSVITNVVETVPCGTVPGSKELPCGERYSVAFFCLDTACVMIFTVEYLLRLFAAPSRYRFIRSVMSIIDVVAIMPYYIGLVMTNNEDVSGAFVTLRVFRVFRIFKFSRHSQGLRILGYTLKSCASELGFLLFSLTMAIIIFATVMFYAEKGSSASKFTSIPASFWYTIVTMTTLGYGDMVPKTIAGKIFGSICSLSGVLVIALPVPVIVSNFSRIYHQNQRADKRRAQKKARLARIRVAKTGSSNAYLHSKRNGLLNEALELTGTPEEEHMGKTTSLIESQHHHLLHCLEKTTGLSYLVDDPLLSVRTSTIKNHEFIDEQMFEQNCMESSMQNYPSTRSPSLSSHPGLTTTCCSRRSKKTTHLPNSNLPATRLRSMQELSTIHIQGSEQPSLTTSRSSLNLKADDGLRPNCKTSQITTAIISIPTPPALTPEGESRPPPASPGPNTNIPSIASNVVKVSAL
Sequence of Lysophosphatidic acid receptor 1 (Homo sapiens) (Q92633 whole entry): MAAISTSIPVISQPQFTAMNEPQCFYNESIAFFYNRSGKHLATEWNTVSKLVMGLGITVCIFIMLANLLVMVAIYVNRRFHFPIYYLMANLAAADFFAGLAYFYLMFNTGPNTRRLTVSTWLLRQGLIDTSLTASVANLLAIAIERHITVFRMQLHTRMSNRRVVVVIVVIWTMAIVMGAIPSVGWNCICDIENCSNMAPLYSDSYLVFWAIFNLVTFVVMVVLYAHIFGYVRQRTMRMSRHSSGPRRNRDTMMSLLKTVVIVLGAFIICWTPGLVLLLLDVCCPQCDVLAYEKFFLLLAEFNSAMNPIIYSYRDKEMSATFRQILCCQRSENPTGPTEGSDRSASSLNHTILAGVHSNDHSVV
Sequence of Voltage-gated inwardly rectifying potassium channel KCNH2 (Q12809 whole entry): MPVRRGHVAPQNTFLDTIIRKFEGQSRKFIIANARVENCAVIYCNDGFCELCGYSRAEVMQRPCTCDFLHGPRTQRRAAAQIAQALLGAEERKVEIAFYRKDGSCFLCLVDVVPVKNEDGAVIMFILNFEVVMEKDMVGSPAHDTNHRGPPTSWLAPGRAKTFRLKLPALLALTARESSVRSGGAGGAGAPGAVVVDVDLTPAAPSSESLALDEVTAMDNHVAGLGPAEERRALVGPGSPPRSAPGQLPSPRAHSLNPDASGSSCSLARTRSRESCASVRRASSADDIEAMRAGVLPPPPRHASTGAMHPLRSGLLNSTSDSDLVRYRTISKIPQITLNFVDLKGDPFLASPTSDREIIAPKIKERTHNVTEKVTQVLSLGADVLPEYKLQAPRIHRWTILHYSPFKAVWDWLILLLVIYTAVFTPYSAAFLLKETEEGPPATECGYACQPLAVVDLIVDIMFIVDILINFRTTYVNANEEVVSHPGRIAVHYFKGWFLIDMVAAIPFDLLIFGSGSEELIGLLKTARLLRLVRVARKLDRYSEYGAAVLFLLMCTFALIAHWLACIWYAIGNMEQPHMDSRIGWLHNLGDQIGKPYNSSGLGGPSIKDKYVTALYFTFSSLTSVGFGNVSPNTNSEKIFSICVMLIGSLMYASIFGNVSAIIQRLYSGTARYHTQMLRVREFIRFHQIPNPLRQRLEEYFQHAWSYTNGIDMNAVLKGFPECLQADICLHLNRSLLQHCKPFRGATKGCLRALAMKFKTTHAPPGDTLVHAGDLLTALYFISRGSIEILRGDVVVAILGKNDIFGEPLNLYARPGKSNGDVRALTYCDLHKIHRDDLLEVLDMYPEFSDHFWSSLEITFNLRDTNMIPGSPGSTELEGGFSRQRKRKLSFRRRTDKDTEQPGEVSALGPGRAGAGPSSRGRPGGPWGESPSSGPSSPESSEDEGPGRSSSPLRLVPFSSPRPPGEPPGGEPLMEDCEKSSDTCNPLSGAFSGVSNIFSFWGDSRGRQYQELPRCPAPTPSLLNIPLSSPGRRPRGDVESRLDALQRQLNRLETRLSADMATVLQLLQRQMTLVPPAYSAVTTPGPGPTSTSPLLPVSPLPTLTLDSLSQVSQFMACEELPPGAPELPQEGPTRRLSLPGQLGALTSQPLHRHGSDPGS
Sequence of Cytochrome P450 2D6 (P10635 whole entry): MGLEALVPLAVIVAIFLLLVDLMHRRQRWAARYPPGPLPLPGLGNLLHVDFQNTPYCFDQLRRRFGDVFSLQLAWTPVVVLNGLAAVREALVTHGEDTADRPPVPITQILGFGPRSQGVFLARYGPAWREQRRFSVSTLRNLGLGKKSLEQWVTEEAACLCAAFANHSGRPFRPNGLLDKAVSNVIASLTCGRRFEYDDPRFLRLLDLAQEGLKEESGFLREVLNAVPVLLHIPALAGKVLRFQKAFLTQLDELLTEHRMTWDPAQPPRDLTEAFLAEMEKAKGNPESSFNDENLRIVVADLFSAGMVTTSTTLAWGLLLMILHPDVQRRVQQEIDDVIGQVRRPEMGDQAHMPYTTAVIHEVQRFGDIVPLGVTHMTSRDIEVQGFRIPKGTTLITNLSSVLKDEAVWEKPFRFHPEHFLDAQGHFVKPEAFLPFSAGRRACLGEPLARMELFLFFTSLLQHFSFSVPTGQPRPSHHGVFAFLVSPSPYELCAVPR
Sequence of Mu-type opioid receptor (Homo sapiens) (P35372 whole entry): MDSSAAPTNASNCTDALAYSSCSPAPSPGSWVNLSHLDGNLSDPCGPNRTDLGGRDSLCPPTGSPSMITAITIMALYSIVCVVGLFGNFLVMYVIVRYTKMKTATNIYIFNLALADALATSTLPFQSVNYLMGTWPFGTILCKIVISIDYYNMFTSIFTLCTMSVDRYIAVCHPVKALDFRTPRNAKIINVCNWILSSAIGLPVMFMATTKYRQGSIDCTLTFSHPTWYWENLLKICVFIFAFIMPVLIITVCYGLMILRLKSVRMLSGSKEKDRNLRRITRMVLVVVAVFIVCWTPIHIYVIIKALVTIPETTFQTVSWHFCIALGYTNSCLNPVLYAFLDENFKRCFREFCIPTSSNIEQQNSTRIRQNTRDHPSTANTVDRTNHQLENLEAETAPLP
Sequence of Oxytocin receptor (Homo sapiens) (P30559 whole entry): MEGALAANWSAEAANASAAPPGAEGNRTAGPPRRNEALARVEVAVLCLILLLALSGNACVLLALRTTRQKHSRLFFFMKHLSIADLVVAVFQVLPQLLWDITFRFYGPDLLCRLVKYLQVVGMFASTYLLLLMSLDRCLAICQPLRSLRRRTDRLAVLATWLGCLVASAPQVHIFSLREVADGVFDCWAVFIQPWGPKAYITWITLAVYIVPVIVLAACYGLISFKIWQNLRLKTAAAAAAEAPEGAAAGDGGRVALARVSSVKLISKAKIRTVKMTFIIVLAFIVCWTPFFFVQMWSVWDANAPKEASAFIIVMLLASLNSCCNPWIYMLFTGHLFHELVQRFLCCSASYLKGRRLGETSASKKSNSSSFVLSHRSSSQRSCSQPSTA
Sequence of Cyclin-dependent kinase 5/CDK5 activator 1 (Homo sapiens) (Q00535 whole entry): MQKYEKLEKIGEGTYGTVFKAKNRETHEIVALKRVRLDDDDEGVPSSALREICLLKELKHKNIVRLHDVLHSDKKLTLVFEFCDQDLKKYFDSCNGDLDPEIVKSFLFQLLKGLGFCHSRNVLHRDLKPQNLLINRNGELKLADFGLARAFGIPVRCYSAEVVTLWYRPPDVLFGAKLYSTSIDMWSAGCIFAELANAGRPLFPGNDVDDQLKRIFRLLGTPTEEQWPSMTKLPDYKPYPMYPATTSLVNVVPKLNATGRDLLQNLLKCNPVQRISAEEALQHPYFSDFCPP
Sequence of Cyclin-dependent kinase 5/CDK5 activator 1 (Homo sapiens) (Q15078 99-307 partner limits assumed): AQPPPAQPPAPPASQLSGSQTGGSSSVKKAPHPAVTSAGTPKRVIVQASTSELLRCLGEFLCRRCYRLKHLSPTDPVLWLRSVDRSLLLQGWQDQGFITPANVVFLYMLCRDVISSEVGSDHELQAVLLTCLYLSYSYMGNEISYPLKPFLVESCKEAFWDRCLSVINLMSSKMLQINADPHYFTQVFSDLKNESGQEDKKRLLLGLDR

CS(=O)(=O)c1ccc(Oc2cc(F)cc(C#N)c2)c2c1[C@H](O)[C@H](F)[C@@H]2F [BELZUTIFAN]
inhibition (INH) [1]: Not Active
Cmax [2]: 1800 ng/mL
Activity [3]: inactive
Activity [4]: inactive
Activity [5]: Not Active
Activity [6]: inactive
Activity [7]: inactive
Activity [8]: inactive
concentration at 24 h [9]: 710 ng/mL
Activity [10]: inactive
Activity [11]: inactive
half-life [12]: 18.8 h
IC50 [13]: > 50 µM
concentration at 24 h [14]: 190 ng/mL
Activity [15]: inactive
logD [16]: 1.2
inhibition (INH) [17]: Not Active
Activity [18]: inactive
AUClast/dose [19]: 60 µM·h
Activity [20]: inactive
inhibition (INH) [21]: Not Active
Km at 1 h, 50 µM [22]: 10 µM
clearance [23]: 19 mL/min/kg
Activity [24]: inactive
inhibition (INH) [25]: Dose-dependent effect
Km at 1 h, up to 1000 µM [26]: 15 µM
Activity [27]: inactive
Activity [28]: inactive
Activity [29]: inactive
Activity [30]: inactive
AUC(0-t) [31]: 7100 ng·h/mL
Activity [32]: inactive
Activity [33]: inactive
Activity [34]: inactive
clearance [35]: 1.3 mL/min/kg
AUClast/dose [36]: 31 µM·h
